Results published in patent US20070105939A1, “Mesylate salt of 5-(2-dimethylaminoethoxy)-1H-indole-2-carboxylic acid [3-(4-hydroxycarbamoylphenyl)prop-2-ynyl]amide” (Pharmacyclics, Inc., priority 2005, published 2007).
Like-named read-outs stand apart in the source and are kept apart here.

Tests used:
[1] = in vivo
[2] = test system: histone deacetylase enzyme H1; details: disclosed in PCT publication WO 2004/019174; cited from earlier work
[3] = Oral bioavailability (background statement); details: have to be administered parenterally for therapeutic effect
[4] = Solubility (background statement)

SMILES | oral bioavailability [1] | inhibition of histone deacetylase enzyme H1 [2] | oral bioavailability [3] | solubility [4]
CN(C)CCOc1ccc2[nH]c(C(=O)NCC#Cc3ccc(C(=O)NO)cc3)cc2c1 [5-(2-dimethylaminoethoxy)-1H-indole-2-carboxylic acid [3-(4-hydroxy-carbamoylphenyl)prop-2-ynyl]amide] | poor | inhibitors | – | –
CN(C)CCOc1ccc2[nH]c(C(=O)NCC#Cc3ccc(C(=O)NO)cc3)cc2c1.Cl [hydrochloride salt, 5-(2-dimethylaminoethoxy)-1H-indole-2-carboxylic acid [3-(4-hydroxy-carbamoylphenyl)prop-2-ynyl]amide hydrochloride] | – | inhibitors | poor | poor
